Data taken from patent US20260125371A1, “METHOD FOR INHIBITING CLOSTRIDIOIDES DIFFICILE SPORE GERMINATION” (UNIVERSITY OF NOTRE DAME DU LAC, priority 2022, published 2026).
Converted amounts (≈) assume the structure as drawn. Like-named read-outs stand apart in the source and are kept apart here.

Tests used:
S. aureus = test: MIC against S. aureus strains; format: cell-based; settings: S. aureus ATCC 29213, 24 h; for MIC: Staphylococcus aureus, ATCC29213, 24 h, read-out: MIC (μg/mL) 24 h
C. difficile ATCC 43255 = test: Determination of minimal-inhibitory concentrations (microdilution), C. difficile ATCC 43255; format: cell-based, Clostridioides difficile; settings: for MIC: Clostridioides difficile
[1] = system: C. difficile strain ATCC43255 spores; test: Spore germination inhibition assay; format: cell-based, Clostridioides difficile; settings: Clostridioides difficile, 1 h, compound 45 μM, germinant 6 mM taurocholate and 12 mM glycine, OD600 over 60 min, duplicate
[2] = C. difficile ATCC 43255, 48-h incubation
[3] = ATCC43255, 24 h, C. difficile ATCC 43255, 24 h, read-out: MIC (μg/mL) 24 h
[4] = ATCC43255, 48 h, C. difficile ATCC 43255, 48-h incubation, read-out: MIC (μg/mL) 48 h

| SMILES | MIC (μg/mL) 24 h (S. aureus) [µg/mL] | MIC (μg/mL) 48 h (C. difficile ATCC 43255; [2]) [µg/mL] | MIC (μg/mL) 24 h (C. difficile ATCC 43255; C. difficile ATCC 43255, 24 h) [µg/mL] | MIC (S. aureus) [µg/mL] | MIC (C. difficile ATCC 43255; [3]) [µg/mL] | MIC (C. difficile ATCC 43255; [4]) [µg/mL] | inhibition at 45 µM [1] [%] | MIC (C. difficile ATCC 43255; ATCC43255, C. difficile ATCC43255, read-out: ATCC43255 MIC) [µg/mL] |
| --- | --- | --- | --- | --- | --- | --- | --- | --- |
| FC(F)(F)c1ccc(Oc2ccc(-c3noc(-c4n[nH]cc4Cl)n3)cc2)cc1 [Compound 26] | 1 (≈ 2.46 µM) | >128 | >128 | – | – | – | – | – |
| FC(F)(F)c1ccc(Oc2ccc(-c3noc(-c4n[nH]cc4Br)n3)cc2)cc1 [Compound 27] | 1 (≈ 2.22 µM) | >128 | >128 | – | – | – | – | – |
| FC(F)(F)c1ccc(Oc2ccc(-c3noc(-c4n[nH]cc4I)n3)cc2)cc1 [Compound 28] | 2 (≈ 4.01 µM) | 128 (≈ 257 µM) | 128 (≈ 257 µM) | – | – | – | – | – |
| OCC#Cc1c[nH]nc1-c1nc(-c2ccc(Oc3ccc(C(F)(F)F)cc3)cc2)no1 [Compound 29] | 4 (≈ 9.38 µM) | >128 | >128 | – | – | – | – | – |
| O=C1C[C@H](c2nc(-c3ccc(Oc4ccc(C(F)(F)F)cc4)cc3)no2)CN1 [Compound 31] | >128 | >128 | >128 | – | – | – | – | – |
| O=C1C[C@@H](c2nc(-c3ccc(Oc4ccc(C(F)(F)F)cc4)cc3)no2)CN1 [Compound 32] | >128 | >128 | >128 | – | – | – | – | – |
| FC(F)(F)c1ccc(Oc2ccc(-c3noc(-c4c[nH]cn4)n3)cc2)cc1 [Compound 34] | 2 (≈ 5.37 µM) | 8 (≈ 21.5 µM) | 8 (≈ 21.5 µM) | – | – | – | – | – |
| FC(F)(F)c1ccc(Oc2ccc(-c3noc(-c4cn[nH]n4)n3)cc2)cc1 [Compound 35] | 16 (≈ 42.9 µM) | >128 | >128 | – | – | – | – | – |
| Nc1c[nH]nc1-c1nc(-c2ccc(Oc3ccc(C(F)(F)F)cc3)cc2)no1 [Compound 37] | 4 (≈ 10.3 µM) | >128 | >128 | – | – | – | – | – |
| FC(F)(F)c1ccc(Oc2ccc(-c3noc(-c4n[nH]cc4NC4CCCC4)n3)cc2)cc1 [Compound 38] | >128 | >128 | >128 | – | – | – | – | – |
| FC(F)(F)c1ccc(Oc2ccc(-c3noc(-c4n[nH]cc4NC4CCCCC4)n3)cc2)cc1 [Compound 39] | >128 | >128 | >128 | – | – | – | – | – |
| CCCCNc1c[nH]nc1-c1nc(-c2ccc(Oc3ccc(C(F)(F)F)cc3)cc2)no1 [Compound 40] | >128 | >128 | >128 | – | – | – | – | – |
| CCC(C)Nc1c[nH]nc1-c1nc(-c2ccc(Oc3ccc(C(F)(F)F)cc3)cc2)no1 (stereo not drawn) [Compound 41] | >128 | >128 | >128 | – | – | – | – | – |
| CC(C)(C)OC(=O)N1CCC(Nc2c[nH]nc2-c2nc(-c3ccc(Oc4ccc(C(F)(F)F)cc4)cc3)no2)CC1 [Compound 42] | >128 | >128 | >128 | – | – | – | – | – |
| O=C(Nc1c[nH]nc1-c1nc(-c2ccc(Oc3ccc(C(F)(F)F)cc3)cc2)no1)c1ccccn1 [Compound 43] | >128 | >128 | >128 | – | – | – | – | – |
| O=C(Nc1c[nH]nc1-c1nc(-c2ccc(Oc3ccc(C(F)(F)F)cc3)cc2)no1)c1ccccc1 [Compound 44] | >128 | >128 | >128 | – | – | – | – | – |
| FC(F)(F)c1ccc(Oc2ccc(-c3noc(-c4n[nH]c5ccccc45)n3)cc2)cc1 [Compound 45] | >128 | >128 | >128 | – | – | – | – | – |
| FC(F)(F)c1ccc(Oc2ccc(-c3noc(-c4c[nH]c5ncccc45)n3)cc2)cc1 [Compound 46] | >128 | >128 | >128 | – | – | – | – | – |

| SMILES | MIC (μg/mL) 24 h (S. aureus) [µg/mL] | MIC (μg/mL) 48 h (C. difficile ATCC 43255; [2]) [µg/mL] | MIC (μg/mL) 24 h (C. difficile ATCC 43255; C. difficile ATCC 43255, 24 h) [µg/mL] | MIC (S. aureus) [µg/mL] | MIC (C. difficile ATCC 43255; [3]) [µg/mL] | MIC (C. difficile ATCC 43255; [4]) [µg/mL] | inhibition at 45 µM [1] [%] | MIC (C. difficile ATCC 43255; ATCC43255, C. difficile ATCC43255, read-out: ATCC43255 MIC) [µg/mL] |
| --- | --- | --- | --- | --- | --- | --- | --- | --- |
| O=[N+]([O-])c1c[nH]c(-c2nc(-c3ccc(Oc4ccc(C(F)(F)F)cc4)cc3)no2)c1 [Compound 47] | 8 (≈ 19.2 µM) | 8 (≈ 19.2 µM) | 8 (≈ 19.2 µM) | – | – | – | – | – |
| O=C(O)c1ccc(-c2nc(-c3ccc(OC4CCCC4)cc3)no2)cc1 [Compound 49, 4-(3-(4-(Cyclopentyloxy)phenyl)-1,2,4-oxadiazol-5-yl)benzoic acid] | – | >128 | – | > 128 | > 128 | – | – | – |
| Nc1ccc(-c2nc(-c3ccc(OC4CCCC4)cc3)no2)cc1 [Compound 51, 4-(3-(4-(Cyclopentyloxy)phenyl)-1,2,4-oxadiazol-5-yl) aniline] | – | >128 | – | 4 (≈ 12.4 µM) | 2 (≈ 6.22 µM) | – | – | – |
| CS(=O)(=O)Nc1ccc(-c2nc(-c3ccc(OC4CCCC4)cc3)no2)cc1 [Compound 52, N-(4-(3-(4-(Cyclopentyloxy)phenyl)-1,2,4-oxadiazol-5-yl)phenyl) methanesulfonamide] | – | >128 | – | > 128 | > 128 | – | – | – |
| NCc1ccc(-c2nc(-c3ccc(OC4CCCC4)cc3)no2)cc1 [Compound 53, (4-(3-(4-(Cyclopentyloxy)phenyl)-1,2,4-oxadiazol-5-yl)phenyl) methanamine] | – | – | – | 2 (≈ 5.96 µM) | 4 (≈ 11.9 µM) | 8 (≈ 23.9 µM) | – | – |
| Cl.NCCCCc1nc(-c2ccc(OC3CCCC3)cc2)no1 [Compound 67, 4-(3-(4-(Cyclopentyloxy)phenyl)-1,2,4-oxadiazol-5-yl)butan-1-amine hydrochloride salt] | – | – | – | > 128 | 128 | 128 | – | – |
| CCOc1ccc(-c2noc(-c3ccc(O)cc3)n2)cc1 [Compound 86, 4-(3-(4-Ethoxyphenyl)-1,2,4-oxadiazol-5-yl)phenol] | – | – | – | > 128 | > 128 | > 128 | – | – |
| CCCOc1ccc(-c2noc(-c3ccc(O)cc3)n2)cc1 [Compound 87, 4-(3-(4-Propoxyphenyl)-1,2,4-oxadiazol-5-yl)phenol] | – | – | – | 128 (≈ 432 µM) | 4 (≈ 13.5 µM) | > 128 | – | – |
| CCCCOc1ccc(-c2noc(-c3ccc(O)cc3)n2)cc1 [Compound 90, 4-(3-(4-Butoxyphenyl)-1,2,4-oxadiazol-5-yl)phenol] | – | – | – | > 128 | > 128 | > 128 | – | – |
| Oc1ccc(-c2nc(-c3ccc(OC4CC4)cc3)no2)cc1 [Compound 92, 4-(3-(4-Cyclopropoxyphenyl)-1,2,4-oxadiazol-5-yl)phenol] | – | – | – | > 128 | > 128 | > 128 | – | – |
| Oc1ccc(-c2nc(-c3ccc(OC4CCC4)cc3)no2)cc1 [Compound 93, 4-(3-(4-Cyclobutoxyphenyl)-1,2,4-oxadiazol-5-yl)phenol] | – | – | – | > 128 | > 128 | > 128 | – | – |
| COc1ccc2oc3ccc(-c4noc(-c5n[nH]cc5[N+](=O)[O-])n4)cc3c2c1 [Compound 119, 3-(8-Methoxydibenzo[b,d]furan-2-yl)-5-(4-nitro-1H-pyrazol-3-yl)-1,2,4-oxadiazole] | – | – | – | 32 (≈ 84.8 µM) | 2 (≈ 5.3 µM) | 64 (≈ 170 µM) | – | – |
| c1cc2cc(-c3nc(-c4ccc5occc5c4)no3)ccc2[nH]1 [Compound 120, 3-(Benzofuran-5-yl)-5-(1H-indol-5-yl)-1,2,4-oxadiazole] | – | – | – | 64 (≈ 212 µM) | > 128 | > 128 | – | – |
| Oc1ccc(-c2cc(-c3ccc(Oc4ccccc4)cc3)no2)cc1 [Compound 135, 4-(3-(4-Phenoxyphenyl)isoxazol-5-yl)phenol] | – | >128 | – | > 128 | > 128 | – | – | – |
| Oc1ccc(-n2cc(-c3ccc(Oc4ccccc4)cc3)nn2)cc1 [Compound 136, 4-(4-(4-Phenoxyphenyl)-1H-1,2,3-triazol-1-yl)phenol] | – | >128 | – | > 128 | > 128 | – | – | – |
| O=C1CC(c2nc(-c3ccc(Oc4ccc(C(F)(F)F)cc4)cc3)no2)CN1 (stereo not drawn) [DR-03-138] | – | – | – | – | – | – | 30 ± 14 | > 128 |
| NCc1ccc(-c2nc(-c3ccc(Oc4ccc(C(F)(F)F)cc4)cn3)no2)cc1 [YQ-4-107] | – | – | – | – | – | – | 24 ± 3 | – |
